Entries after “also recorded” stand apart in the source; their conditions may differ.
How the values were obtained:
[1] = test system: U2OS cells; experiment: Circadian period assay in Bmal1-dLuc U2OS reporter cells; assay type: cell-based, human
Description: Next, we tested if the observed light-dependent CKIα inhibition translates into photomodulation of the circadian period in human U2OS cells (Fig. 2d). The Bmal1-dLuc reporter cell line contains the coding sequence of destabilized luciferase driven by the Bmal1 gene promoter sequence. The cell culture medium for luminescence recording includes a high concentration of luciferin (0.2 mM), a substrate for luciferase, which strongly absorbs UV light (Supplementary Fig. 30). […] As the circadian period change is directly correlated with the potency and concentration of the inhibitor[10], the cells were treated with photoswitchable modulators using a broad range of concentrations.
In comparison to the kinase assay, the direct use of UV light for preventing a thermal back-isomerization of the cis-isomer was not feasible due to the cell-damaging effect and the presence of luciferin in the medium. Therefore, the modulators were kept in the dark or photo-isomerized in DMSO prior to the addition, without further irradiation during the circadian assay. All three modulators lengthened the period in the U2OS cells both in the dark and upon irradiation (Fig. 2d). […] Altogether, based on the efficient generation of the cis-isomer under irradiation, retained potency and promising light-modulation of CKIα inhibition, the meta-substituted modulator 4 was identified as representing lead substitution pattern for further investigation.
Stable U2OS reporter cells harboring Bmal1-dLuc reporter were suspended in phenol red-free culture medium [DMEM (D2902, Sigma) supplemented with 10% fetal bovine serum, 3.5 mg/mL D-glucose, 3.7 mg/mL sodium bicarbonate, 0.29 mg/mL L-glutamine, 100 units/mL penicillin, and 100 µg/mL streptomycin] and plated onto a white, solid-bottom 384-well plates at 30 µL (3000 cells) per well. After 2 days, 40 µL of phenol red-free explant medium [DMEM (D2902, Sigma) supplemented with 2% B27 (Gibco), 10 mM HEPES, 3.5 mg/mL D-glucose, 0.38 mg/mL sodium bicarbonate, 0.29 mg/mL L-glutamine, 100 units/mL penicillin, 100 µg/mL streptomycin, and 0.2 mM luciferin; pH 7.2] was dispensed into each well, followed by the application of 0.5 μL of compounds (dissolved in DMSO; final 0.7% DMSO; pre-irradiated with UV for 60 min, white LED for 10 min, and/or green LED for 60 min when indicated). The plate was covered with an optically clear film, and subjected to irradiation with 530 nm LED lamp (3 × 550 mW, λmax = 530 nm, FWHM 36 nm, Sahlmann Photochemical Solutions) or 400 nm LED lamp (3 × 1000 mW, λmax = 400 nm, FWHM 11.9 nm, Sahlmann Photochemical Solutions) from 12 cm distance for 30 min. Compound handling and irradiation were conducted in a dark room under red lamp illumination. Luminescence was recorded every 100 min in a microplate reader, Infinite M200Pro (Tecan). For the phase control experiments, cellular light irradiation was performed in a dark 32 °C room and luminescence was recorded in a microplate reader Synergy H1 (BioTek) placed in the same room, to avoid possible effect of transient temperature change on the phase. Circadian period and phase were determined from luminescence rhythms by a curve fitting program MultiCycle (Actimetrics). Data from the first day was excluded from analysis, because of transient changes in luminescence upon medium change. Statistical significance was evaluated using two-way analysis of variance (ANOVA) followed by a Sidak’s multiple comparisons test or one-way ANOVA followed by a Tukey’s multiple comparisons test using Prism software (GraphPad Software).

[2] = Fatigue on repeated photoisomerization cycles; assay type: physicochemical
Description: Upon reaching PSS distribution with green light, thermal back-isomerization was followed in the dark for 14 h (gray background). After this period, violet light was applied (violet rectangle) for 8 min to confirm the presence of the remaining cis-isomer and estimate cis-to-trans ratio. Green light allowed for switching to the cis-isomer once again (green rectangle), showing that in situ isomerization is possible. c Reversible photochromism in cell culture medium followed at 312 nm absorbance. […] The thermally adapted sample is shown in black (dark), irradiated with green light in vitro (pre-incubation, shown in green), with violet light in cellulo (post-incubation, shown in gray), and with green light in vitro followed by violet light in cellulo in purple. The control experiment with longdaysin is also shown. Luminescence rhythm profiles and data for DMSO-treated cells are shown in Supplementary Figs. 25 and 26, respectively. Luminescence is given in arbitrary units. n = 3 biologically independent samples for the CKIα enzymatic assay (d), n = 2 biologically independent samples for the CKIδ enzymatic assay (d), and n = 3 biologically independent samples for the cellular assay (e). […]
Supplementary Figure 30. […] The spectrum is measured at pH 7.4 (0.1 mM in water) and in presence of 0.1 mM concertation of luciferin. […]

Row | SMILES | effect of UV light irradiation on period lengthening ([1]; UV (365 nm) pre-irradiated) | recovery of biological activity upon back-isomerization with white light ([1]; UV light followed by white light) | period lengthening effect under dark conditions ([1]; dark) | fatigue upon repeated illumination cycles [2] | period change, first 3 days, kept in dark ([1]; 8 μM (Fig. 5b)) [h] | period lengthening, dark treatment of green-irradiated cells, additional 3 days ([1]; 8 μM (Fig. 5b)) [h] | period lengthening, violet light treatment of dark-kept cells ([1]; 8 μM (Fig. 5b)) [h] | period lengthening after violet light on the third day of green-irradiated cells ([1]; 8 μM, 400 nm in situ (Fig. 5b)) [h] | period lengthening, three additional days after green light irradiation ([1]; 8 μM, green light 530 nm in cellulo after 3 days (Fig. 5a)) [h] | period change after photoisomerization with green light in vitro ([1]; 8 µM, green light 530 nm pre-incubation (Fig. 4e)) [h] | period change, first 3 days, green light-irradiated cells ([1]; 8 μM, green light in cellulo at start (Fig. 5b)) [h] | period lengthening after green light in vitro and violet light in cellulo ([1]; 8 µM, in situ back-photoisomerization 400 nm (Fig. 4e)) [h] | period lengthening vs DMSO, three additional days, non-irradiated ([1]; 8 μM, kept dark (Fig. 5a)) [h] | period lengthening, trans-isomer (dark) ([1]; 8 µM, thermally adapted, dark (Fig. 4e)) [h] | period change, first 3 days in the dark ([1]; 8 μM, trans-9 applied (Fig. 5a)) [h] | effect of violet light only on dark samples on the circadian period activity ([1]; violet light 400 nm in cellulo (Fig. 4e))
1 | Cc1nn(C)c(C)c1/N=N/c1cccc(CNc2ncnc3c2ncn3C(C)C)c1 [Compound 8] | suppressed by UV light irradiation | full recovery | strong period lengthening effect | low fatigue | – | – | – | – | – | – | – | – | – | – | – | –
2 | CC(C)n1cnc2c(NCc3ccc(F)c(/N=N/c4c(F)cccc4F)c3F)ncnc21 [Compound 9] | – | – | – | very low fatigue; also recorded: Almost no fatigue | 7 | 5 | 8 | 8 | 2 | 1 | 2 | 4 | 10 | 4 | 5 | no effect
